Measured values: patent publication US11964973B2 (priority 2019, dated 2024)

Test system: Human venous whole blood (IFN-γ)
Experiment: Human whole blood IFN-γ assay
Assay type: cell-based
Details: Homo sapiens, 24 h, human whole blood, anti-CD3 plus anti-CD28, 24 hours; read-out: INFg Whole Blood Normalized Agonist EC50
Method: Assay 10: Human Whole Blood IFN-γ Assay
Human venous whole blood (22.5 μL per well), obtained from healthy donors, was pre-treated with compounds for one hour at 37° C. in a humidified 95% air/5% CO2 incubator. The blood was stimulated with 2.5 μL anti-human CD3 and anti-CD28 mAb at a final concentration of 1 μg/mL each for 24 hours at 37° C. IFN-γ in the supernatants was measured using AlphLISA kit (Cat #AL217).

| SMILES | EC50 |
| --- | --- |
| C[C@@H]1CN(c2cc(=O)n(C)c3ccc(C#N)nc23)CC[C@H]1Oc1ccc(OC(F)(F)F)cc1 (racemic) [Example 79, (+/−) 6-cyano-1-methyl-4-(trans-3-methyl-4-(4-(trifluoromethoxy)phenoxy)piperidin-1-yl)-1,5-naphthyridin-2(1H)-one] | 2.2 µM |
| C[C@@H]1CN(c2cc(=O)n(C)c3ccc(C#N)nc23)CC[C@H]1Oc1ccc(C2CCCCC2)cc1 (racemic) [Example 106, 8-((3R,4R)-4-(4-cyclohexylphenoxy)-3-methylpiperidin-1-yl)-5-methyl-6-oxo-5,6-dihydro-1,5-naphthyridine-2-carbonitrile] | 2.2 µM |
| CCc1ccc(O[C@@H]2CCN(c3cc(=O)n(C)c4ccc(C#N)nc34)C[C@H]2C)cc1 (racemic) [Example 110, 8-((3R,4R)-4-(4-ethylphenoxy)-3-methylpiperidin-1-yl)-5-methyl-6-oxo-5,6-dihydro-1,5-naphthyridine-2-carbonitrile] | 3 µM |
| C[C@@H]1CN(c2cc(=O)n(C)c3ccc(C#N)nc23)CC[C@H]1Oc1ccc(C2CC2)cc1 (racemic) [Example 111, 8-((3R,4R)-4-(4-cyclopropylphenoxy)-3-methylpiperidin-1-yl)-5-methyl-6-oxo-5,6-dihydro-1,5-naphthyridine-2-carbonitrile] | 3.3 µM |
| C[C@@H]1CN(c2cc(=O)n(C)c3ccc(C#N)nc23)CC[C@H]1Oc1ccc(F)cc1F (racemic) [Example 113, 8-((3R,4R)-4-(2,4-difluorophenoxy)-3-methylpiperidin-1-yl)-5-methyl-6-oxo-5,6-dihydro-1,5-naphthyridine-2-carbonitrile] | 4.1 µM |
| C[C@@H]1CN(c2cc(=O)n(C)c3ccc(C#N)nc23)CC[C@H]1Oc1c(F)cccc1C(F)(F)F (racemic) [Example 124, 8-((3R,4R)-4-(2-fluoro-6-(trifluoromethyl)phenoxy)-3-methylpiperidin-1-yl)-5-methyl-6-oxo-5,6-dihydro-1,5-naphthyridine-2-carbonitrile] | 20 µM |
| CC[C@@H]1CN(c2cc(=O)n(C)c3ccc(C#N)nc23)CC[C@H]1Oc1ccc(C(C)C)cc1 (racemic) [Example 143, 8-((3R,4R)-3-ethyl-4-(4-isopropylphenoxy)piperidin-1-yl)-5-methyl-6-oxo-5,6-dihydro-1,5-naphthyridine-2-carbonitrile] | 2.2 µM |
| CC[C@@H]1CN(c2cc(=O)n(C)c3ccc(C#N)nc23)CC[C@H]1Oc1ccc(C(F)(F)F)cc1 (racemic) [Example 146, 8-((3R,4R)-3-ethyl-4-(4-(trifluoromethyl)phenoxy)piperidin-1-yl)-5-methyl-6-oxo-5,6-dihydro-1,5-naphthyridine-2-carbonitrile] | 1.7 µM |
| CC[C@@H]1CN(c2cc(=O)n(C)c3ccc(C#N)nc23)CC[C@H]1Oc1ccc(C(C)(C)CC)cc1 (racemic) [Example 149, 8-((3R,4R)-3-ethyl-4-(4-(tert-pentyl)phenoxy)piperidin-1-yl)-5-methyl-6-oxo-5,6-dihydro-1,5-naphthyridine-2-carbonitrile] | 1.4 µM |
| CC[C@@H]1CN(c2cc(=O)n(C)c3ccc(C#N)nc23)CC[C@H]1Oc1ccc(C(C)(C)C)cc1 (racemic) [Example 152, 8-((3R,4R)-4-(4-(tert-butyl)phenoxy)-3-ethylpiperidin-1-yl)-5-methyl-6-oxo-5,6-dihydro-1,5-naphthyridine-2-carbonitrile] | 1.5 µM |
| CC[C@@H]1CN(c2cc(=O)n(C)c3ccc(C#N)nc23)CC[C@H]1Oc1cccc(C2CC2)c1 (racemic) [Example 155, 8-((3R,4R)-4-(3-cyclopropylphenoxy)-3-ethylpiperidin-1-yl)-5-methyl-6-oxo-5,6-dihydro-1,5-naphthyridine-2-carbonitrile] | 20 µM |
| C[C@@H]1CN(c2cc(=O)n(C)c3ccc(C#N)nc23)CC[C@H]1Oc1ccc(OC(F)(F)F)cc1 (single isomer, unassigned) [Example 80, 6-cyano-1-methyl-4-(trans-3-methyl-4-(4-(trifluoromethoxy)phenoxy)piperidin-1-yl)-1,5-naphthyridin-2(1H)-one (rel)] | 2.4 µM |
| C[C@@H]1CN(c2cc(=O)n(C)c3ccc(C#N)nc23)CC[C@H]1Oc1ccc(C(C)(C)C)cc1 (single isomer, unassigned) [Example 90] | 5.6 µM |
| C[C@@H]1CN(c2cc(=O)n(C)c3ccc(C#N)nc23)CC[C@H]1Oc1c(F)cccc1F (single isomer, unassigned) [Example 126] | 20 µM |
| C[C@@H]1CN(c2cc(=O)n(C)c3ccc(C#N)nc23)CC[C@H]1Oc1ccc(F)cc1 (single isomer, unassigned) [Example 129] | 20 µM |

Same assay, conditions: Homo sapiens, human whole blood IFN-γ; read-out: INFg Whole Blood

| SMILES | EC50 |
| --- | --- |
| CC(C)Oc1ccc(O[C@@H]2CCN(c3cc(=O)n(C)c4ccc(C#N)nc34)C[C@H]2C)nc1 (mixture of isomers) [Example 199, 8-((3R,4R)-4-((5-isopropoxypyridin-2-yl)oxy)-3-methylpiperidin-1-yl)-5-methyl-6-oxo-5,6-dihydro-1,5-naphthyridine-2-carbonitrile] | 2.1 µM |
| C[C@@H]1CN(c2cc(=O)n(C)c3ccc(C#N)nc23)CC[C@@H]1Oc1ccc(C(F)(F)F)cc1 (racemic) [Example 186, (+/−) 5-methyl-8-(cis-3-methyl-4-(4-(trifluoromethyl)phenoxy)piperidin-1-yl)-6-oxo-5,6-dihydro-1,5-naphthyridine-2-carbonitrile] | 1.6 µM |
| CC(C)Oc1ccc(OC2CCN(c3cc(=O)n(C)c4ccc(C#N)nc34)CC2(C)C)nc1 (racemic) [Example 232, (+/−) 8-(4-((5-isopropoxypyridin-2-yl)oxy)-3,3-dimethylpiperidin-1-yl)-5-methyl-6-oxo-5,6-dihydro-1,5-naphthyridine-2-carbonitrile] | 7 µM |
| C[C@@H]1CN(c2cc(=O)n(C)c3ccc(C#N)nc23)CC[C@@H]1OCc1ccc(OC(F)(F)F)cc1 (racemic) [Example 235, (+/−) 5-methyl-8-(cis-3-methyl-4-((4-(trifluoromethoxy)benzyl)oxy)piperidin-1-yl)-6-oxo-5,6-dihydro-1,5-naphthyridine-2-carbonitrile] | 5.2 µM |
| C[C@@H]1CN(c2cc(=O)n(C)c3ccc(C(N)=O)nc23)CC[C@@H]1OCc1ccc(OC(F)(F)F)cc1 (racemic) [Example 236, (+/−) 5-methyl-8-(cis-3-methyl-4-((4-(trifluoromethoxy)benzyl)oxy)piperidin-1-yl)-6-oxo-5,6-dihydro-1,5-naphthyridine-2-carboxamide] | 20 µM |

Same assay, conditions: human whole blood IFN-γ; read-out: INFg Whole Blood

| SMILES | EC50 |
| --- | --- |
| CO[C@@H]1CN(c2cc(=O)n(C)c3ccc(C#N)nc23)CC[C@H]1Oc1cccc(C(F)(F)F)c1 (racemic) [Example 261, (±)-trans-8-(3-methoxy-4-(3-(trifluoromethyl)phenoxy)piperidin-1-yl)-5-methyl-6-oxo-5,6-dihydro-1,5-naphthyridine-2-carbonitrile] | 0.91 µM |
| CO[C@@H]1CN(c2cc(=O)n(C)c3ccc(C#N)nc23)CC[C@H]1Oc1cccc(C(F)(F)F)c1 (racemic) [Example 262, (±)-trans-8-(3-methoxy-4-(3-(trifluoromethyl)phenoxy)piperidin-1-yl)-5-methyl-6-oxo-5,6-dihydro-1,5-naphthyridine-2-carbonitrile] | 12 µM |
| CC(C)Oc1ccc(O[C@H]2CCN(c3cc(=O)n(C)c4ccc(C#N)nc34)C[C@@H]2O)nc1 (racemic) [Example 268, (±)-trans-8-(3-hydroxy-4-((5-isopropoxypyridin-2-yl)oxy)piperidin-1-yl)-5-methyl-6-oxo-5,6-dihydro-1,5-naphthyridine-2-carbonitrile] | 13 µM |
| CO[C@H]1CN(c2cc(=O)n(C)c3ccc(C#N)nc23)CC[C@@H]1Oc1ccc(OC(C)C)cn1 (racemic) [Example 269, (±)-trans-8-(4-((5-isopropoxypyridin-2-yl)oxy)-3-methoxypiperidin-1-yl)-5-methyl-6-oxo-5,6-dihydro-1,5-naphthyridine-2-carbonitrile] | 1.6 µM |
| CO[C@H]1CN(c2cc(=O)n(C)c3ccc(C#N)nc23)CC[C@@H]1Oc1ccc(OC(C)C)cn1 (racemic) [Example 270, (±)-trans-8-(4-((5-isopropoxypyridin-2-yl)oxy)-3-methoxypiperidin-1-yl)-5-methyl-6-oxo-5,6-dihydro-1,5-naphthyridine-2-carbonitrile] | 5.4 µM |
| CO[C@@H]1CN(c2nc(=O)n(C)c3ccc(C#N)nc23)CC[C@H]1Oc1cccc(C(F)(F)F)c1 (racemic) [Example 276] | 1 µM |
| CO[C@@H]1CN(c2nc(=O)n(C)c3ccc(C#N)nc23)CC[C@H]1Oc1cccc(C(F)(F)F)c1 (racemic) [Example 277] | 4.5 µM |

Same assay, conditions: human whole blood, anti-CD3 plus anti-CD28, 24 hours; read-out: INFg Whole Blood Normalized Agonist EC50

| SMILES | EC50 |
| --- | --- |
| C[C@@H]1CN(c2cc(=O)n(C)c3ccc(C#N)nc23)CC[C@H]1Oc1ccc(OC(F)(F)F)cc1 (single isomer, unassigned) [Example 81, 6-cyano-1-methyl-4-(trans-3-methyl-4-(4-(trifluoromethoxy)phenoxy)piperidin-1-yl)-1,5-naphthyridin-2(1H)-one (rel)] | 2 µM |
| C[C@@H]1CN(c2cc(=O)n(C)c3ccc(C#N)nc23)CC[C@H]1Oc1ccc(C(F)(F)F)cc1 (single isomer, unassigned) [Example 98] | 1.2 µM |
| C[C@@H]1CN(c2cc(=O)n(C)c3ccc(C#N)nc23)CC[C@H]1Oc1ccc(C(F)(F)F)cc1 (single isomer, unassigned) [Example 99] | 2.9 µM |
| C[C@@H]1CN(c2cc(=O)n(C)c3ccc(C#N)nc23)CC[C@H]1Oc1ccc(F)c(F)c1 (single isomer, unassigned) [Example 105] | 2 µM |
| C[C@@H]1CN(c2cc(=O)n(C)c3ccc(C#N)nc23)CC[C@H]1Oc1c(F)cccc1F (single isomer, unassigned) [Example 127] | 20 µM |
